Where a name gives a salt, the structure may show the parent alone. Read-outs that look alike come from different tables or passages of the source. One block for each molecule: values may come before it. Residues, ends and D or L forms follow the SMILES beside them. No end group written: not given here.
What was measured:
[1] = test system: LDL-induced monocyte chemotactic activity in cultures of human aortic endothelial cells; test: HDL-inflammatory index of HDL from treated apoE null mice; format: in vivo; settings: for HDL-inflammatory index, potency relative to niclosamide: FIG. 24: salicylanilide 10:1 with 5 μg D-4F or L-4F by stomach tube, 6 hours
Excerpt: 11-month-old female apoE null mice were fasted during the day. At night the mice were provided chow containing or not containing additions. In the first experiment the mice were given chow alone (C) or chow supplemented with 8.0 micrograms of Niclosamide (2′,5-Dichloro-4′-nitrosalicylanilide; Niclosamide, Sigma catalog number N-3510 Page 1711 2006-2007 catalog Empirical Formula (Hill Notation): C13H8C12N2O4 Formula Weight: 327.12, CAS Number: 50-65-7 Batch 105K0666 EC 200-056-8) per gram of chow (D) or chow supplemented with 2.0 micrograms of L-4F (free base) per gram of chow (E), or chow supplemented with 8.0 micrograms of Niclosamide together with 2.0 micrograms of L-4F (free base) per gram of chow (F). The mice were only given one gram of chow per mouse (n=8 mice per group) so that they would consume all of the chow. In the morning after the chow was consumed the mice were bled and their plasma was sucrose cryopreserved and fractionated by FPLC and the HDL-containing fractions were tested for their ability to inhibit monocyte chemotactic activity induced by a standard control human LDL (A) in cultures of human aortic endothelial cells. The mouse HDL (C-J) was also compared to a standard human HDL (B) that was added at the same concentrations as the mouse HDL. The resulting monocyte chemotactic activity was normalized to the standard control LDL added alone (A). The results are plotted as the HDL-inflammatory index, which is the result of dividing the monocyte chemotactic activity measured for each condition by the monocyte chemotactic activity obtained by the standard control LDL added alone, which was normalized to 1.0 as described previously (Navab et al. (2004) J Lipid Res, 45: 993-1007).
A second experiment was performed as described for the first experiment with 8 mice in each group except that the additions to the chow were different. Chow alone in the second experiment (G) was compared to chow supplemented with 100 micrograms of Niclosamide per gram of chow (H), or supplemented with 10 micrograms of L-4F (free base) per gram of mouse chow (I), or supplemented with 10 micrograms of L-4F (free base) together with 100 micrograms of Niclosamide per gram of chow (J). As in the first experiment the mice were only given one gram of chow per mouse so that they would consume all of the chow. In the morning this second group of mice were bled and their HDL tested in the human artery wall cell culture together with the HDL from the first experiment.
Ten mg of Niclosamide was placed in a glass-glass homogenizer with mortar and round bottom pestle (Kontes Dounce Tissue grinder, K885300-0015 available from Fisher, VWR) and 200 μL of ethanol was added. The Niclosamide ethanol mixture was homogenized using 2-3 strokes and distilled water was added and the mixture further homogenized using 5-10 strokes and the volume was adjusted to 10 mL with distilled water. Serial dilutions of this mixture were made using distilled water to give the micrograms of Niclosamide shown on the x-axis, which were contained in 100 μL. L-4F (free base) was diluted with water to give 10 μg per 100 μL of water. One hundred microliters of the Niclosamide solution was given by stomach tube to each mouse in each group of twelve-month-old non-fasting female apoE null mice (n=4 per group) and immediately followed by 100 μL containing 10 μg of L-4F (free base) in water. The mice were fasted and after 7 hours they were bled and their plasma was sucrose cryopreserved. The plasma was fractionated by FPLC and the HDL-containing fractions were tested for their ability to inhibit the induction of monocyte chemotactic activity by a standard control human LDL, which was added to cultures of human aortic endothelial cells. The standard control human LDL was also added by itself or with a standard control human HDL. The values obtained by the standard control human LDL alone were normalized to 1.0. […]

[2] = test system: monocyte chemotactic activity in cultures of human aortic endothelial cells; test: LDL-inflammatory index of LDL from treated apoE null mice; format: in vivo; settings: FIG. 25: co-administered with D-4F or L-4F, mice of FIG. 24
[3] = test system: aortic sinus lesion area; test: Lesion regression in old apoE null mice, six months in chow; format: in vivo; settings: FIGS. 32-34: niclosamide 2 mg and/or L-4F 200 μg/mouse/day in chow, pravastatin 50 μg/mouse/day, 26 weeks
Excerpt: Ninety-five female apoE null mice age 9.5 months from the UCLA breeding colony were identified. Twenty-three were sacrificed at time Zero (Group I) to establish lesion area at the start of the experiment. The remainder of the mice were divided into three groups of 24 mice each and the following additions were made to the chow for each group: Group II: Niclosamide at 2,000 micrograms/mouse/day; Group III: L-4F at 200 micrograms/mouse/day; Group IV: L-4F at 200 micrograms/mouse/day plus Niclosamide at 2,000 micrograms/mouse/day. All groups received 50 micrograms/mouse/day of pravastatin in their drinking water. At the veterinarian's request because of fighting and/or ulcerative dermatitis mice were euthanized prior to the end of the experiment as follows: 6 mice from Group II; 5 mice from Group III; 4 mice from Group IV. After six months the remaining mice were sacrificed and aortic sinus lesion area was determined as described previously (Id.).
In still another experiments, nine and half months-old female apoE null mice were divided into four groups: Group I was sacrificed to establish base line lesion area (Time Zero). Group II received niclosamide at 2 mg/mouse/day in rodent chow. Group III received L-4F at 200 μg/mouse/day in rodent chow. […] After 26 weeks the mice were sacrificed and aortic sinus lesion area was determined.

[4] = test system: LDL-induced monocyte chemotactic activity in cultures of human aortic endothelial cells; settings: mice, oral, without niclosamide; human artery wall cells (Navab 2002); cited from earlier work
[5] = mouse, in vivo
[6] = mouse, in vivo; cited from earlier work
[7] = Solubilization of niclosamide in water with or without L-4F; format: physicochemical; settings: even when added in ethanol and homogenized
[8] = cited from earlier work; for solubility in water: 20° C., ethanolamine salt in distilled water
[9] = mouse, in vivo, 100 ug
[10] = mouse, in vivo; remark: listed apart in the source
[11] = test system: inflammatory response induced by the action of HPODE oxidizing PAPC in cocultures of human artery wall cells; settings: apoE null mice, drinking water 24 hours; D-4F 1 μg/ml, atorvastatin or pravastatin 0.05 mg/ml; cited from earlier work
[12] = Fate of peptides after an oral dose (degradation, association with HDL, clearance from the circulation)
[13] = FIG. 8: female apoE null mice, overnight in chow, niclosamide 8 or 100 μg and/or L-4F 2 or 10 μg per gram of chow
[14] = FIG. 22: 10 μg peptide with or without niclosamide 10:1, pH 8.0, stomach tube, 7 hours

Molecule: O=C(Nc1ccc([N+](=O)[O-])cc1Cl)c1ccc(Cl)cc1O [BP-1001]
HDL-inflammatory index, potency relative to niclosamide [1]: more potent than niclosamide | LDL-inflammatory index, potency relative to niclosamide [2]: more potent

Molecule: O=C(Nc1ccc([N+](=O)[O-])cc1Cl)c1ccc(O)c(Cl)c1 [BP-1012]
HDL-inflammatory index, potency relative to niclosamide [1]: more potent than niclosamide | LDL-inflammatory index, potency relative to niclosamide [2]: more potent

time after an oral dose at which essentially non-detectable in the circulation [5]: 6 h
Molecule: CC(=O)N[C@@H](CC(=O)O)C(=O)N[C@@H](Cc1c[nH]c2ccccc12)C(=O)N[C@@H](Cc1ccccc1)C(=O)N[C@@H](CCCCN)C(=O)N[C@@H](C)C(=O)N[C@@H](Cc1ccccc1)C(=O)N[C@@H](Cc1ccc(O)cc1)C(=O)N[C@@H](CC(=O)O)C(=O)N[C@@H](CCCCN)C(=O)N[C@H](C(=O)N[C@@H](C)C(=O)N[C@@H](CCC(=O)O)C(=O)N[C@@H](CCCCN)C(=O)N[C@@H](Cc1ccccc1)C(=O)N[C@@H](CCCCN)C(=O)N[C@@H](CCC(=O)O)C(=O)N[C@@H](C)C(=O)N[C@@H](Cc1ccccc1)C(N)=O)C(C)C [L-4F, Ac-D-W-F-K-A-F-Y-D-K-V-A-E-K-F-K-E-A-F-NH2] (Ac-DWFKAFYDKVAEKFKEAF-NH2)
HDL-inflammatory index [1, 13]: slightly but significantly improved | HDL-inflammatory index [1, 14]: only able to achieve this degree of efficacy when co-administered with niclosamide | lesions in old apoE null mice versus time zero [3]: neither niclosamide nor L-4F without niclosamide significantly reduced lesions | protective capacity of HDL to inhibit LDL-induced monocyte chemotactic activity [4]: did not significantly alter | association with pre-beta HDL and HDL ([5]; po): rapidly associates with pre-beta HDL and HDL | degradation after oral administration [6]: rapidly degraded

solubility in aqueous solutions [7]: relatively insoluble
Molecule: O=C(Nc1ccc([N+](=O)[O-])cc1Cl)c1cc(Cl)ccc1O [Niclosamide, 2′5-dichloro-4′-nitrosalicylanilide]
HDL-inflammatory index [1, 13]: ineffective | HDL-inflammatory index ([1]; FIG. 24: salicylanilide administered without the peptides): neither niclosamide nor the new salicylanilides were anti-inflammatory | lesions in old apoE null mice versus time zero [3]: neither niclosamide nor L-4F without niclosamide significantly reduced lesions | solubility in water [8]: 5 to 8 µg/mL | solubility in acetone [8]: soluble in acetone | solubility in ether, ethanol and chloroform [8]: sparingly soluble | stability in tablets ([8]; moist environments): undergoes a biodegradation

Cmax [9]: ~150 ng/mL | duration of (low) plasma levels [10]: no more than 5 minutes | persistence of plasma level at a lower level [10]: up to four hours | persistence of the Cmax plasma level [10]: persisted for more than an hour
Molecule: CC(=O)N[C@@H](CC(=O)O)C(=O)N[C@@H](Cc1c[nH]c2ccccc12)C(=O)N[C@@H](Cc1ccccc1)C(=O)N[C@@H](CCCCN)C(=O)N[C@@H](C)C(=O)N[C@@H](Cc1ccccc1)C(=O)N[C@@H](Cc1ccc(O)cc1)C(=O)N[C@@H](CC(=O)O)C(=O)N[C@@H](CCCCN)C(=O)N[C@H](C(=O)N[C@@H](C)C(=O)N[C@@H](CCC(=O)O)C(=O)N[C@@H](CCCCN)C(=O)N[C@@H](Cc1ccccc1)C(=O)N[C@@H](CCCCN)C(=O)N[C@@H](CCC(=O)O)C(=O)N[C@@H](C)C(=O)N[C@@H](Cc1ccccc1)C(N)=O)C(C)C [^14C-L-4F] (Ac-DWFKAFYDKVAEKFKEAF-NH2; N-terminus and C-terminus assumed)
HDL inflammatory index ([1]; FIG. 28: 10 μg 14C-L-4F with 100 μg niclosamide, 5 hours): biologically active when given with niclosamide

Molecule: CC(C)c1c(C(=O)Nc2ccccc2)c(-c2ccccc2)c(-c2ccc(F)cc2)n1CC[C@@H](O)C[C@@H](O)CC(=O)O [atorvastatin, reference compound]
HDL function [11]: did not improve HDL function

Molecule: O=C(Nc1ccc([N+](=O)[O-])cc1Cl)c1cc(Cl)ccc1O [ethanolamine salt, 5-chloro-salicyl-(2-chloro-4-nitro) anilide 2-aminoethanol salt]
solubility in water [8]: 180 to 280 µg/mL

Molecule: D-4F: 4F (SEQ ID NO:5) where one or more residues are D form amino acids (DWFKAFYDKVAEKFKEAF; also: one or more residues D-form, places not given here)
HDL-inflammatory index [1, 14]: able to render apoE null mouse HDL anti-inflammatory to a degree comparable to normal human HDL | HDL function [11]: did not significantly improve HDL function | association with pre-beta HDL and HDL ([12]; after an oral dose): rapidly associates with pre-beta HDL and HDL | time after an oral dose at which essentially non-detectable in the circulation ([12]; oral dose): 6 h
